≈ marks a conversion by molar mass, not a printed value.
Tests used:
[1] = 1-Octanol-saturated McIlvaine buffer partition coefficient, log P of the compound at 80 uM at pH 6.01 by spectrophotometric analysis; format: physicochemical; conditions: 1-octanol/McIlvaine buffer
Trichomonas vaginalis = assay: Antimicrobial activity against Trichomonas vaginalis ATCC 30001 assessed as growth inhibition after 48 hrs under anaerobic conditions by microscopic analysis; format: functional; conditions: ATCC 30001, 48 h
Clostridium pasteurianum = assay: Antimicrobial activity against Clostridium pasteurianum ATCC 6013 assessed as growth inhibition after 24 hrs under anaerobic conditions by microscopic analysis; format: functional; conditions: ATCC 6013, 24 h
[2] = Decrease in current height for electroreduction of S-Fe bonding in clostridial ferridoxin assessed as alternating current reduction peak potential at 32 uM by polarographic technique; format: physicochemical
[3] = Effect on magnitude of electroreduction potential (Ep) of clostridial ferridoxin by alternating current polarographic technique; format: physicochemical

Structure (SMILES) | logD at 80 µM [1] | MIC (Trichomonas vaginalis) [µg/mL] | MIC (Clostridium pasteurianum) [µg/mL] | Activity [2] [V] | Activity [3]
Cc1ncc([N+](=O)[O-])n1CCCl | 0.879 | 0.195 (≈ 1.03 µM) | 0.39 (≈ 2.06 µM) | – | –
CC(=O)OCCn1c([N+](=O)[O-])cnc1C | 0.301 | 0.098 (≈ 0.46 µM) | 0.39 (≈ 1.83 µM) | – | –
Cc1ncc([N+](=O)[O-])n1CCSC(=S)N(C)C | 1.28 | 0.195 (≈ 0.711 µM) | 0.683 (≈ 2.49 µM) | 0.533 | Not Active
Cc1ncc([N+](=O)[O-])n1CCN=[N+]=[N-] | 0.755 | 0.341 (≈ 1.74 µM) | 0.39 (≈ 1.99 µM) | – | –
Cc1ncc([N+](=O)[O-])n1CCOC(=O)N(C)C | 0.455 | 0.195 (≈ 0.805 µM) | 0.39 (≈ 1.61 µM) | – | –
Cc1ncc([N+](=O)[O-])n1CCS(=O)(=O)[O-].[Na+] | -2.05 | 6.25 | 1.17 | – | –
CC(=O)NCCn1c([N+](=O)[O-])cnc1C | -0.469 | 10.9 (≈ 51.6 µM) | 0.78 (≈ 3.68 µM) | – | –
Cc1ncc([N+](=O)[O-])n1CCSc1ccc(Cl)cc1 | 1.47 | 12.5 (≈ 42 µM) | 5.47 (≈ 18.4 µM) | – | –
Cc1ncc([N+](=O)[O-])n1CCO [METRONIDAZOLE] | -0.051 | 0.098 (≈ 0.573 µM) | 0.244 (≈ 1.43 µM) | – | –
